From ChEMBL document CHEMBL5113522, “Discovery of CH7057288 as an Orally Bioavailable, Selective, and Potent pan-TRK Inhibitor” (J Med Chem, 2022)

What was measured:
CYP3A4 = CYP3A4 (Homo sapiens, UniProt P08684); assay: Induction of CYP3A4 in human hepatocytes assessed as fold induction at 1 uM using testosterone as substrate preincubated with replacement of fresh medium containing compound every 24 hrs for 72 hrs followed by substrate addition and measured after 1 hr by LC-MS/MS analysis relative to control; type: ADME, cell-based, Hepatocyte; details: probe testosterone, time 73 hrs, read-out: FC
[1] = molecular target: Vascular endothelial growth factor receptor 2 (Homo sapiens, UniProt P35968); assay: Inhibition of KDR (unknown origin)
NIH3T3 = assay: Antiproliferative activity against […] NIH3T3 cells expressing MPRIP-NTRK1 assessed as cell growth inhibition incubated for 4 to 7 days by CellTiter-Glo Luminescent Cell Viability Assay; type: functional, cell-based; details: Mus musculus
[2] = molecular target: Tyrosine-protein kinase Lck (Homo sapiens, UniProt P06239); assay: Inhibition of LCK (unknown origin)
[3] = molecular target: High affinity nerve growth factor receptor (Homo sapiens, UniProt P04629); assay: Inhibition of TRKA (unknown origin)
[4] = molecular target: Cyclin-dependent kinase 1 (Homo sapiens, UniProt P06493); assay: Inhibition of CDK1 (unknown origin)
[5] = molecular target: cAMP-dependent protein kinase (PKA) (Homo sapiens, UniProt P22694+P17612+P22612); assay: Inhibition of PKA (unknown origin); type: protein assay
[6] = molecular target: RAC-alpha serine/threonine-protein kinase (Homo sapiens, UniProt P31749); assay: Inhibition of AKT1 (unknown origin)
[7] = molecular target: Protein kinase C alpha type (Homo sapiens, UniProt P17252); assay: Inhibition of PKCalpha (unknown origin)
[8] = molecular target: RAF proto-oncogene serine/threonine-protein kinase (Homo sapiens, UniProt P04049); assay: Inhibition of RAF1 (unknown origin)
[9] = molecular target: Proto-oncogene tyrosine-protein kinase Src (Homo sapiens, UniProt P12931); assay: Inhibition of Src (unknown origin)
[10] = molecular target: Hepatocyte growth factor receptor (Homo sapiens, UniProt P08581); assay: Inhibition of MET (unknown origin)
[11] = molecular target: Fibroblast growth factor receptor 2 (Homo sapiens, UniProt P21802); assay: Inhibition of FGFR2 (unknown origin)
[12] = molecular target: NT-3 growth factor receptor (Homo sapiens, UniProt Q16288); assay: Inhibition of TRKC (unknown origin)
[13] = molecular target: BDNF/NT-3 growth factors receptor (Homo sapiens, UniProt Q16620); assay: Inhibition of TRKB (unknown origin)
[14] = molecular target: Epidermal growth factor receptor (Homo sapiens, UniProt P00533); assay: Inhibition of EGFR (unknown origin)
[15] = molecular target: ALK tyrosine kinase receptor (Homo sapiens, UniProt Q9UM73); assay: Inhibition of ALK (unknown origin)
[16] = molecular target: Serine/threonine-protein kinase Chk1 (Homo sapiens, UniProt O14757); assay: Inhibition of CHK1 (unknown origin)
[17] = molecular target: Tyrosine-protein kinase JAK2 (Homo sapiens, UniProt O60674); assay: Inhibition of JAK2 (unknown origin)
[18] = molecular target: Receptor tyrosine-protein kinase erbB-2 (Homo sapiens, UniProt P04626); assay: Inhibition of HER2 (unknown origin)
Insulin receptor = Insulin receptor (Homo sapiens, UniProt P06213); assay: Inhibition of INSR (unknown origin)

Chain of Vascular endothelial growth factor receptor 2 (P35968 whole entry): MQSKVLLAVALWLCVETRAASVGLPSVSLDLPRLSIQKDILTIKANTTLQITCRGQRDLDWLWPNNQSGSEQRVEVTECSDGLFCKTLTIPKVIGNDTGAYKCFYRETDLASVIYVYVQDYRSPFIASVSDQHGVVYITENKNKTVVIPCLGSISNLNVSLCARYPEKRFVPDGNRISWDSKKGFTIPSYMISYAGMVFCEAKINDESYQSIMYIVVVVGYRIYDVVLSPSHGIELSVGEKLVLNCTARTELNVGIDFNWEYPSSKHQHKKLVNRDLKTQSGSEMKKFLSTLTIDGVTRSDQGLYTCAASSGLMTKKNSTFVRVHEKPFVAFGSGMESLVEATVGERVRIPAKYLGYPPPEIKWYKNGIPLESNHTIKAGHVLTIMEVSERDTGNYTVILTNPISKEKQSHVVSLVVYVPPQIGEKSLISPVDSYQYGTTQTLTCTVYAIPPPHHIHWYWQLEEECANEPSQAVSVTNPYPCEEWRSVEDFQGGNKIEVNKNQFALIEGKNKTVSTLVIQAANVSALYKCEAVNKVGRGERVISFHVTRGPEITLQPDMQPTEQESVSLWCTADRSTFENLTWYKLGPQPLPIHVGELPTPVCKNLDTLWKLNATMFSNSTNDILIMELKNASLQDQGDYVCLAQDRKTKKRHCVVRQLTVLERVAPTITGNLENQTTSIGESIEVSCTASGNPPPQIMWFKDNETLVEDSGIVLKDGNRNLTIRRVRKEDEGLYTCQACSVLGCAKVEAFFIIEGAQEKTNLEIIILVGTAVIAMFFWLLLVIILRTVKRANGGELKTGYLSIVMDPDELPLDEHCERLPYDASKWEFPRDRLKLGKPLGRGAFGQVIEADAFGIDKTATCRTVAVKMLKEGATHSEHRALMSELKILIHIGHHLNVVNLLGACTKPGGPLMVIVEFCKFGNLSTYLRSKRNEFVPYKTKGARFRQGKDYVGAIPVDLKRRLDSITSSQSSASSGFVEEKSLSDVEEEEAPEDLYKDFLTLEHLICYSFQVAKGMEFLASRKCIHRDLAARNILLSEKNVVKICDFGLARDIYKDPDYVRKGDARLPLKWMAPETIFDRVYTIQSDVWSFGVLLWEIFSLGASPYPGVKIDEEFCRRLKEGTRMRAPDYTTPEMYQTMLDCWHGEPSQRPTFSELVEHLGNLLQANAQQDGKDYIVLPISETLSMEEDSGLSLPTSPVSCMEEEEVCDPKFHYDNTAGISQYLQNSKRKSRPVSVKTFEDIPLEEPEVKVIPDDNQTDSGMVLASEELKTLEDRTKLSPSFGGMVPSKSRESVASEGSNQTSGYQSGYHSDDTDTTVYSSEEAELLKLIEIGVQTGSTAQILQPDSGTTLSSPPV
Chain of CYP3A4 (P08684 whole entry): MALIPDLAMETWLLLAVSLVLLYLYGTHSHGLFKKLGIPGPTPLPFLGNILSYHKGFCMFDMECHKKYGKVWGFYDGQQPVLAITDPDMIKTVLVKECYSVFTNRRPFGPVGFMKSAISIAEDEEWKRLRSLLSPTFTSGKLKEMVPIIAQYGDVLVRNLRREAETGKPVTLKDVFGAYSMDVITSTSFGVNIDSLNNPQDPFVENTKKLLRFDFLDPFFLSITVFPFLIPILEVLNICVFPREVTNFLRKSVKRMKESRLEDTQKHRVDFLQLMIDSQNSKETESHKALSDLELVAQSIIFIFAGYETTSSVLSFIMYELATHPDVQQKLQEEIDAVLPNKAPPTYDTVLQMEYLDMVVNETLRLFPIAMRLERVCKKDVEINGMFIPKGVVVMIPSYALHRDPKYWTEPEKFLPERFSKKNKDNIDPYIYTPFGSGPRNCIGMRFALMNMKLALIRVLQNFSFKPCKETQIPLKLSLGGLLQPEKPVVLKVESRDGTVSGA
Chain of High affinity nerve growth factor receptor (P04629 whole entry): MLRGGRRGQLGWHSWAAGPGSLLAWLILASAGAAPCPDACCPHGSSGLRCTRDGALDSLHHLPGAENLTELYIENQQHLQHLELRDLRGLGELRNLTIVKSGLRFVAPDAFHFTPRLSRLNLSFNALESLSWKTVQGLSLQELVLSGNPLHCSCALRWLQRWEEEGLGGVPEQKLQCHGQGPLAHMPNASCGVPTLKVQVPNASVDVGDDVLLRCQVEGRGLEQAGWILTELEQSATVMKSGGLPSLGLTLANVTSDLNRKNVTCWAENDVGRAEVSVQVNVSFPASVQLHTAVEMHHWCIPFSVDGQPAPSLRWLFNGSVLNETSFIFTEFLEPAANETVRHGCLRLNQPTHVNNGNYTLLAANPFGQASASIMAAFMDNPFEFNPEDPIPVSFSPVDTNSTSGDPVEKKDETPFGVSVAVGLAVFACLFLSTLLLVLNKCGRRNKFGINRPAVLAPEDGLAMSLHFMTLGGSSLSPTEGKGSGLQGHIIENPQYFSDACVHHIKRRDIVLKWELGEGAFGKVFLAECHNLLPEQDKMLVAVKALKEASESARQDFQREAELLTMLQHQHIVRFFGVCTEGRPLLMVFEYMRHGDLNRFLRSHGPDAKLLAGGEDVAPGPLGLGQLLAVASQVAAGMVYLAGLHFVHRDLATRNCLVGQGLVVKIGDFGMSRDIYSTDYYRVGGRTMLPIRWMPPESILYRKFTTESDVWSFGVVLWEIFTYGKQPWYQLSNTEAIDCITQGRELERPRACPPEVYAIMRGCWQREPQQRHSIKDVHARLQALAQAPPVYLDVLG
Chain of Tyrosine-protein kinase Lck (P06239 whole entry): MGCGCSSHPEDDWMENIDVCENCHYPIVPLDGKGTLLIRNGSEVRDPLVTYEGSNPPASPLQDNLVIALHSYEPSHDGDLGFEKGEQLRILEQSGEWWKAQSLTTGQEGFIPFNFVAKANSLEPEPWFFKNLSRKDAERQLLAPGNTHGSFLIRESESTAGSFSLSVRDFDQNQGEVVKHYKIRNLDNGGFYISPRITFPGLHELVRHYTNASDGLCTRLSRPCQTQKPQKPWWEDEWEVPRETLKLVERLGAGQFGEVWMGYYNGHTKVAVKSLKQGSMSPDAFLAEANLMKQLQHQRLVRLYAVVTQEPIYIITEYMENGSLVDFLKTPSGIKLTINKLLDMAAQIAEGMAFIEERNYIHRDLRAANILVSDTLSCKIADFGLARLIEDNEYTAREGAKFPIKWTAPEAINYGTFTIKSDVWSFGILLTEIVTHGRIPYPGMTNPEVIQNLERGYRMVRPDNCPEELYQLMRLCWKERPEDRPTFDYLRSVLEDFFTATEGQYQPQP
Chain of Cyclin-dependent kinase 1 (P06493 whole entry): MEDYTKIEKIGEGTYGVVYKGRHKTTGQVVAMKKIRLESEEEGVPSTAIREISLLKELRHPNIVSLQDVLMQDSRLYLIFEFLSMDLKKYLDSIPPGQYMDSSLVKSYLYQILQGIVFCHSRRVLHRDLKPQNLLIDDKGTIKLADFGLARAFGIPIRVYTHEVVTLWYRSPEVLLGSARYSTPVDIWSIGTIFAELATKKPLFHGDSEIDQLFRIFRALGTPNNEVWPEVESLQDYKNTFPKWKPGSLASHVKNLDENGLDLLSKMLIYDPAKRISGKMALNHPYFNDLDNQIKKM
Chain of Epidermal growth factor receptor (P00533 whole entry): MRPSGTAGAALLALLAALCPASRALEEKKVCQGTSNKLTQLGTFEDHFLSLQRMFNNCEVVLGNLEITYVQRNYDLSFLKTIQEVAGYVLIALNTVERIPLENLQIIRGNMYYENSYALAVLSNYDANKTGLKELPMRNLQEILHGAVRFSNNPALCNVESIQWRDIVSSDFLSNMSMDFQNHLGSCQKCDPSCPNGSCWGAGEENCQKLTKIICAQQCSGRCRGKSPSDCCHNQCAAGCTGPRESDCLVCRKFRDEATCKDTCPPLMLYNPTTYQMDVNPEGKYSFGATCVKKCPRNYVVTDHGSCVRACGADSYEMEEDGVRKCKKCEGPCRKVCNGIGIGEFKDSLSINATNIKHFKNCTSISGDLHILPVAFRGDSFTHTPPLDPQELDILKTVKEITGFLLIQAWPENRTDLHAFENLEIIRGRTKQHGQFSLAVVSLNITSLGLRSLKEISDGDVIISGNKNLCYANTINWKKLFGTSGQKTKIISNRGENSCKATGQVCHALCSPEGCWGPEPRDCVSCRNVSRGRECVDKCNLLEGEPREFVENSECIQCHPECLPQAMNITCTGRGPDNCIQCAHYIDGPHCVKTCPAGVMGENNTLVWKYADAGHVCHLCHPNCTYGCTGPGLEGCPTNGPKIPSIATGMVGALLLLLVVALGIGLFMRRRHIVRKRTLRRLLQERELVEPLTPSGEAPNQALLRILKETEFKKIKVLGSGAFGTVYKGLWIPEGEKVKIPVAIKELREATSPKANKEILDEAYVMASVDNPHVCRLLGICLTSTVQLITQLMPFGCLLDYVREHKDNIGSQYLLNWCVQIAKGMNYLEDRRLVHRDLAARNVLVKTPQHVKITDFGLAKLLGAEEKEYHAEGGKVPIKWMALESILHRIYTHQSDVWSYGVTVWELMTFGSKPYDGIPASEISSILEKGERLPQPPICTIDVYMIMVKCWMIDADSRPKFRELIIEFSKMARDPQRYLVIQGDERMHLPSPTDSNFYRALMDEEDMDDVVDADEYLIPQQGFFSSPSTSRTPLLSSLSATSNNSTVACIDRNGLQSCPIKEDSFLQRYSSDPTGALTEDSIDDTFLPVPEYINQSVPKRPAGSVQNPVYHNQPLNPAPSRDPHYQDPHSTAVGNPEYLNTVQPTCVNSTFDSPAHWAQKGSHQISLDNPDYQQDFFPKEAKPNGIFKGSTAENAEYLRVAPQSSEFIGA

Row | fold induction at 1 h, 1 µM (CYP3A4) | IC50 [1] [nM] | IC50 [2] [nM] | IC50 [3] [nM] | SMILES | IC50 (NIH3T3) [nM] | other results
1 | 4.7 | 600 | 130 | 0.7 | CC(C)(C)NC(=O)c1ccnc(C#Cc2ccc3c4c(oc3c2)C(C)(C)c2cc(NS(C)(=O)=O)ccc2C4=O)c1 | 14 | 
2 | 3.4 | 997 | 159 | 2.2 | CC1(C)c2cc(NS(C)(=O)=O)ccc2C(=O)c2c1oc1cc(C#Cc3cc(OCC(F)(F)F)ccn3)ccc21 | 67 | 
3 | 0.9 | > 1000 | 96 | 1.2 | CCCc1cc(C(=O)NC(C)(C)C)cc(C#Cc2ccc3c4c(oc3c2)C(C)(C)c2cc(NS(C)(=O)=O)ccc2C4=O)n1 | 12 | 
4 | 2.8 | > 1000 | 320 | 0.7 | CCc1cc(C(=O)NC(C)(C)C)cc(C#Cc2ccc3c4c(oc3c2)C(C)(C)c2cc(NS(C)(=O)=O)ccc2C4=O)n1 | 12 | 
5 | 4.1 | > 1000 | 300 | 3.8 | Cc1c(C(=O)NC(C)(C)C)ccnc1C#Cc1ccc2c3c(oc2c1)C(C)(C)c1cc(NS(C)(=O)=O)ccc1C3=O | 45 | 
6 | 3 | > 1000 | 180 | 2.2 | CC(C)(C)NC(=O)c1cc(Cl)nc(C#Cc2ccc3c4c(oc3c2)C(C)(C)c2cc(NS(C)(=O)=O)ccc2C4=O)c1 | 48 | 
7 | 2.6 | > 1000 | 760 | 3.8 | Cc1cnc(C#Cc2ccc3c4c(oc3c2)C(C)(C)c2cc(NS(C)(=O)=O)ccc2C4=O)cc1C(=O)NC(C)(C)C | 65 | 
8 | 1.2 | > 1000 | 223 | 3.9 | CC1(C)c2cc(NS(C)(=O)=O)ccc2C(=O)c2c1oc1cc(C#Cc3cc(OCC4CC4)ccn3)ccc21 | 75 | 
9 | 2.5 | > 1000 | 130 | 2.6 | CC(C)(C)NC(=O)c1cc(C#Cc2ccc3c4c(oc3c2)C(C)(C)c2cc(NS(C)(=O)=O)ccc2C4=O)nc(C(F)(F)F)c1 | 55 | 
10 | 2.8 | > 1000 | 145 | 2.4 | CC1(C)c2cc(NS(C)(=O)=O)ccc2C(=O)c2c1oc1cc(C#Cc3cc(C(=O)NC4CC4)ccn3)ccc21 | 83 | 
11 | 6.3 | > 1000 | 330 | 3.3 | CC1(C)c2cc(OCCN3CCOCC3)ccc2C(=O)c2c1oc1cc(C#Cc3cc(OCC(F)(F)F)ccn3)ccc21 | 21 | 
12 | 11 | > 1000 | 58 | 2.8 | CC(C)(C)NC(=O)c1cc(C#N)nc(C#Cc2ccc3c4c(oc3c2)C(C)(C)c2cc(NS(C)(=O)=O)ccc2C4=O)c1 | 67 | 

The remaining lines, values behind:

Row | SMILES | fold induction at 1 h, 1 µM (CYP3A4) | IC50 [1] [nM] | IC50 [2] [nM] | IC50 [3] [nM] | IC50 (NIH3T3) [nM] | other results
13 | CC1(C)c2cc(OCCN3CCOCC3)ccc2C(=O)c2c1oc1cc(C#Cc3cc(OCC4CC4)ccn3)ccc21 | 6.5 | 757 |  | 4.5 |  | IC50 [4]: > 10000 nM; IC50 [5]: > 10000 nM; IC50 [6]: > 10000 nM; IC50 [7]: > 10000 nM; IC50 [8]: > 10000 nM; IC50 [9]: 2000 nM; IC50 [10]: > 10000 nM; IC50 [11]: > 10000 nM; IC50 [12]: 6.9 nM; IC50 [13]: 8.1 nM; IC50 [14]: > 10000 nM; IC50 [15]: 2800 nM; IC50 [16]: > 10000 nM; IC50 [17]: > 10000 nM; IC50 [18]: > 10000 nM; IC50 (Insulin receptor): > 10000 nM
14 | CC1(C)c2cc(OCCN3C4CCC3COC4)ccc2C(=O)c2c1oc1cc(C#Cc3cc(OCC4CC4)ccn3)ccc21 | 6.7 | > 1000 | 170 | 18 | 180 | 
15 | CC1(C)c2cc(N3CC4(COC4)C3)ccc2C(=O)c2c1oc1cc(C#Cc3cc(OCC4CC4)ccn3)ccc21 | 2.6 | 430 | 86 | 3 | 69 | 
16 | CC1(C)c2cc(N3CCNC(=O)C3)ccc2C(=O)c2c1oc1cc(C#Cc3cc(OCC4CC4)ccn3)ccc21 | 4.2 | 290 | 50 | 1.4 | 16 | 
17 | CC1(C)c2cc(OCCN3CCOCC3)ccc2C(=O)c2c1oc1cc(C#Cc3cc(OCC4(CO)CC4)ccn3)ccc21 | 7.9 | 960 | 370 | 3.3 | 184 | 
18 | CC1(C)c2cc(OCCN3CCOCC3)ccc2C(=O)c2c1oc1cc(C#Cc3cc(OCCC4CC4)ccn3)ccc21 | 6.4 | 490 | 220 | 2 | 530 | 
19 | CC1(COc2ccnc(C#Cc3ccc4c5c(oc4c3)C(C)(C)c3cc(OCCN4CCOCC4)ccc3C5=O)c2)CC1 | 6.1 | 420 | 160 | 2 | 73 | 
20 | CC1(C)c2cc(OCCN3CCOCC3)ccc2C(=O)c2c1oc1cc(C#Cc3cncc(OCC4CC4)c3)ccc21 |  |  |  | 160 |  | 
21 | CC1(C)c2cc(N3CCOCC3)ccc2C(=O)c2c1oc1cc(C#Cc3cc(OCC4CC4)ccn3)ccc21 | 5.4 | 690 | 190 | 3.4 | 53 | 
22 | COCCOc1ccnc(C#Cc2ccc3c4c(oc3c2)C(C)(C)c2cc(OCCN3CCOCC3)ccc2C4=O)c1 | 6.3 | > 1000 | 820 | 15 | 130 | 
23 | CC1(C)c2cc(OCCN3CC4(COC4)C3)ccc2C(=O)c2c1oc1cc(C#Cc3cc(OCC4CC4)ccn3)ccc21 | 1.4 | 500 | 22 | 4 | 46 | 
24 | CC1(C)c2cc(OCCN3CCOCC3)ccc2C(=O)c2c1oc1cc(C#Cc3cc(OCC4CCC4)ccn3)ccc21 | 3.1 | 171 | 53 | 2.7 | 210 | 
25 | CC1(C)c2cc(OCCN3CCOCC3)ccc2C(=O)c2c1oc1cc(C#Cc3cc(C(=O)NC4CC4)ccn3)ccc21 | 12 | > 1000 | 180 | 1.3 | 30 | 
26 | CC1(C)c2cc(OCCN3CCCOCC3)ccc2C(=O)c2c1oc1cc(C#Cc3cc(OCC4CC4)ccn3)ccc21 | 6.1 | 960 | 96 | 2.8 | 80 | 
27 | CC1(C)c2cc(OCCN3CCNC(=O)C3)ccc2C(=O)c2c1oc1cc(C#Cc3cc(OCC4CC4)ccn3)ccc21 | 5.2 | 413 | 68 | 2.1 | 19 | 
28 | CC1(C)NC(=O)N(CCOc2ccc3c(c2)C(C)(C)c2oc4cc(C#Cc5cc(OCC6CC6)ccn5)ccc4c2C3=O)C1=O | 1.9 | > 1000 | 140 | 13 | 150 | 
